Test results: patent US10221426B2, “Constitutively active PYR/PYL receptor proteins for improving plant stress tolerance” (The Regents of the University of California, priority 2009, dated 2019)

Biological target: T1, PYL4 and HAB1 (Arabidopsis thaliana, UniProt O80920)
T1 construct: vector pHB3; made in house
T1 sequence (O80920 1-207): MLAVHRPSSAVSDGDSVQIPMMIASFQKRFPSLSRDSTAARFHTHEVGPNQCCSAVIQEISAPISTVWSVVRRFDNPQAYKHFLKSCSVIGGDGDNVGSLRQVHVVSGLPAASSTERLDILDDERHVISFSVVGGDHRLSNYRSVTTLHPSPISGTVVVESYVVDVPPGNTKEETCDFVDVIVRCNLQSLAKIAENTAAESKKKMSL
T1 sequence (Q9CAJ0 23-511 partner): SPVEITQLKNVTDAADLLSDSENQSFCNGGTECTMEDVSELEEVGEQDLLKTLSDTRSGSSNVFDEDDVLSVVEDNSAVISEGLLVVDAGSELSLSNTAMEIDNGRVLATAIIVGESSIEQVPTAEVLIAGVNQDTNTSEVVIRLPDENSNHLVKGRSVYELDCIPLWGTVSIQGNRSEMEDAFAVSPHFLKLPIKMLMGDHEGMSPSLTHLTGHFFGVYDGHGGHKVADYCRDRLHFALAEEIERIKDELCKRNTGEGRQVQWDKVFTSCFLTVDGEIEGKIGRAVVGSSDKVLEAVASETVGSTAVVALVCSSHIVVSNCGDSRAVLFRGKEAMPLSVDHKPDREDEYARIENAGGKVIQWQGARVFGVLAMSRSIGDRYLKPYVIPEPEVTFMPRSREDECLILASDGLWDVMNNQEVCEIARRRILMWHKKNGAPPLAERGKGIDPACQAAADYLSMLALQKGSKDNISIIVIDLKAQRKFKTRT
Experiment: In vitro pull down assay of refolded PYL4 with HAB1
Format: binding
Procedure: To explore the functional implications of the PYR1-PP2C interaction, we examined if an ABA response could be reconstituted in vitro. Recombinant GST-HAB1, GST-ABI1 and GST-ABI2 were expressed in E. coli and tested for ligand-dependent interactions with 6×His-PYR1 in pull-down assays. Purified 6×His-PYR1 and GST-HAB1 (20 and 100 μg respectively, 8 μM PYR1 final concentration), were combined in 100 μl TBS containing 10 μM (+)-ABA or 1% DMSO for negative control. The reaction was incubated for 90 minutes at RT and 5 μl of PrepEase (USB) His-tagged protein purification resin was added. The resin and reaction mixture was incubated 30 min at RT with gentle shaking at 5 min intervals. The resin was washed five times with TBS containing 10 μM (+)-ABA. After the final wash, the bound protein was eluted in 20 μl SDS-PAGE buffer, boiled for 5 minutes and centrifuged. 5 μl of eluate was analyzed on SDS-PAGE. For pull-downs with ABI1 and ABI2, crude lysates were used in a similar method, except purified PP2C was replaced with cleared E. coli lysates. The amount of lysate added was determined by SDS-page analysis to yield ˜100 μg PP2C, such that the same stoichiometry was used as in assays using purified proteins.
A PYL4 6×His-tagged (SEQ ID NO:141) protein was constructed using a public pUni clone. This was recombined into the His-tagged expression vector pHB3. […]

For `CC1=CC(=O)CC(C)(C)[C@@]1(O)/C=C/C(C)=C\C(=O)O` [ABA, Abscisic acid], the “PYL4 binding to HAB1 in pull down” value was “binds HAB1 in response to ABA”.
